# Source: patent publication US7122547B1, “Anthranilic acid amides and the use thereof as medicaments” (Schering AG, priority 1998, dated 2006)
# Legend:
# [1] = biological target: VEGFR I (FLT) (Homo sapiens, UniProt P17948); assay: Inhibition of FLT-1 kinase activity (33P-ATP, poly-(Glu4Tyr) phosphocellulose filter assay); assay type: biochemical; conditions: 10 minutes at room temperature, KH = keine Hemmung = No inhibition
# Method: (§1) • Stock solutions • Stock solution A: 3 mmol of ATP in water, pH 7.0 (−70° C.) • Stock solution B: g-0.33P-ATP 1 mCi/100 μl • Stock solution C: poly-(Glu4Tyr) 10 mg/ml in water Solution for Dilutions • Substrate solvent: 10 mmol of DTT, 10 mmol of manganese chloride, 100 mmol of magnesium chloride • Enzyme solution: 120 mmol of tris/HCl, pH 7.5, 10 μm of sodium vanadium oxide Sample Application 1
# (§2) Inhibition of the KDR- and FLT-1 kinase activity in the presence of the compounds according to the invention
# (§3) It is thoroughly mixed and incubated for 10 minutes at room temperature. Then, 10 μl of stop solution (250 mmol of EDTA, pH 7.0) is added, mixed, and 10 μl of the solution is transferred to a P 81 phosphocellulose filter. Then, it is washed several times in 0.01 M phosphoric acid. The filter paper is dried, coated with Meltilex and measured in a microbeta counter.
# [2] = biological target: VEGFR II (KDR) (Homo sapiens, UniProt P35968); assay: Inhibition of KDR kinase activity (33P-ATP, poly-(Glu4Tyr) phosphocellulose filter assay); assay type: biochemical; conditions: 10 minutes at room temperature, KH = keine Hemmung = No inhibition
# Method: as §1, §2, §3
# Chain of VEGFR II (KDR) (P35968 20-1356, species assumed): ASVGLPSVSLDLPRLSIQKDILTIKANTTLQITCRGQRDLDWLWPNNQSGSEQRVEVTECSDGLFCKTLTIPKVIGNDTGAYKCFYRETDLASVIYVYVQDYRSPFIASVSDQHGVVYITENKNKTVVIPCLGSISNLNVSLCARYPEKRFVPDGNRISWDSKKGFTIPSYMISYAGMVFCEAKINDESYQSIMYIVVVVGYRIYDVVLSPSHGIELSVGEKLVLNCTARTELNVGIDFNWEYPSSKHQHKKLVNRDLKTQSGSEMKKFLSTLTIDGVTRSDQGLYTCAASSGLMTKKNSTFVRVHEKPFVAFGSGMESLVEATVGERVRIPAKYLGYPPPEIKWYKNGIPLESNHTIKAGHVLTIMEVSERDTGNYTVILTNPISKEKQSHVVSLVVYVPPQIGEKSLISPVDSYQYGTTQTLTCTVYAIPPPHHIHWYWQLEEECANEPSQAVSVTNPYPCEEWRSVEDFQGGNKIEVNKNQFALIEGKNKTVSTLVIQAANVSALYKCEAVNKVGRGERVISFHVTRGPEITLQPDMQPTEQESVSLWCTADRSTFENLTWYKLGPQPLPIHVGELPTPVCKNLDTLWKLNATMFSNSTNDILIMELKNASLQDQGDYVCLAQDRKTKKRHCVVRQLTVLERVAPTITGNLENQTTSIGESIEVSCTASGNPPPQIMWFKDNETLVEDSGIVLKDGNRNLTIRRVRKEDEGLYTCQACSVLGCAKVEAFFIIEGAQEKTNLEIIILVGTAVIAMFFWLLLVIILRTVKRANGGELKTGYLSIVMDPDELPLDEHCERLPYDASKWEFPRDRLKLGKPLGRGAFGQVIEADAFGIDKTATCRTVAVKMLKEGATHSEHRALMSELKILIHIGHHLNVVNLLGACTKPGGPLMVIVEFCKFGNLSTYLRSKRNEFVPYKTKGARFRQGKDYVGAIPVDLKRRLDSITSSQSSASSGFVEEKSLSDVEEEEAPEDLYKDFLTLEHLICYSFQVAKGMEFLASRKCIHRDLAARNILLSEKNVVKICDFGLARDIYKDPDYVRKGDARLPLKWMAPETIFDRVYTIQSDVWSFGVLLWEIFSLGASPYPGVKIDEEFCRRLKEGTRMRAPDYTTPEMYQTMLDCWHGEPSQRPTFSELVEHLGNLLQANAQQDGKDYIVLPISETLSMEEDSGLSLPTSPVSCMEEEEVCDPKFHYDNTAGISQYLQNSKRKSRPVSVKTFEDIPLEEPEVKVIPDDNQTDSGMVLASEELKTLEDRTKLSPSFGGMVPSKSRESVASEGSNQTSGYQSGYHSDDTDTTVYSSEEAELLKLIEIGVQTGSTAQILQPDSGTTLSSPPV
# Chain of VEGFR I (FLT) (P17948 27-1338, species assumed): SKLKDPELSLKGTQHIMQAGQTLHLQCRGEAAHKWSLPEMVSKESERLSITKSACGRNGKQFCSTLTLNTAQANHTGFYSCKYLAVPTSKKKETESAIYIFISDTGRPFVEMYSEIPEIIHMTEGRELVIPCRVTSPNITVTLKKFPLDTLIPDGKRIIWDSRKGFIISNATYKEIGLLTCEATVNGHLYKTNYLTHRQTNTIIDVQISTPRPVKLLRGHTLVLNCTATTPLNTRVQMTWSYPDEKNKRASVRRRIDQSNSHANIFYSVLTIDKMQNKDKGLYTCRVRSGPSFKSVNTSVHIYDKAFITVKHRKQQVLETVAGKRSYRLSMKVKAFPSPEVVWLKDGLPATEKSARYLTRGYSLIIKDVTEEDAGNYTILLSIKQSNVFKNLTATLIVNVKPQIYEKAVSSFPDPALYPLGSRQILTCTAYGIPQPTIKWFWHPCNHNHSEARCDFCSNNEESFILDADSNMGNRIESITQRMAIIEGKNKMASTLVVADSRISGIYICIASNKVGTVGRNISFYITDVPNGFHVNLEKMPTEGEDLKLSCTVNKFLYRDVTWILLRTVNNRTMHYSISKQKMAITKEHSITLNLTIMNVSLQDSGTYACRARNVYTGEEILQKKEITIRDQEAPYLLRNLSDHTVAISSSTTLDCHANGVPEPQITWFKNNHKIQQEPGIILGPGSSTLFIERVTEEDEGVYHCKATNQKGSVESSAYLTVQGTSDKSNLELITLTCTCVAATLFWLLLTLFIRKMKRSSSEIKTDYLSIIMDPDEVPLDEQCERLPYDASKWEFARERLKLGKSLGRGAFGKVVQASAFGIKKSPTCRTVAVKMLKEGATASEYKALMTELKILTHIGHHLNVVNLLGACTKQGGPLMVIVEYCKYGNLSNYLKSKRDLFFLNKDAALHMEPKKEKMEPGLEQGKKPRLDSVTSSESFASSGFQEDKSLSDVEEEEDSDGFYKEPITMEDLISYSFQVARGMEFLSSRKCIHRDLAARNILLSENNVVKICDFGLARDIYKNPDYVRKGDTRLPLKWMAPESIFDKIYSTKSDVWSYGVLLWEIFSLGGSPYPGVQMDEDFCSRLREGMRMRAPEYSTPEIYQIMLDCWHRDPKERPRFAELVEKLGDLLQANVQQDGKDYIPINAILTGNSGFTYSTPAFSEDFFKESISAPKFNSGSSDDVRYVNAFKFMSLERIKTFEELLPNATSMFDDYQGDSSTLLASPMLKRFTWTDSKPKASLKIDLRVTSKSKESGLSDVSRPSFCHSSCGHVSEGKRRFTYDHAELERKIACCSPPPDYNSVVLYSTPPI
SMILES,IC50 [1],IC50 [2]
O=C(NNc1ccc(Cl)cc1)c1ccccc1NCc1ccncc1 [Example 2.4],20 nM,100 nM
O=C(N[C@H]1CCCc2ccccc21)c1ccccc1NCc1ccncc1 [Example 2.45],100 nM,–
O=C(NCc1ccc2ccccc2n1)c1ccccc1NCc1ccncc1 [Example 2.48],100 nM,500 nM
O=C(NC1CCc2cc(Cl)ccc21)c1ccccc1NCc1ccncc1 (stereo not drawn) [Example 2.20],4000 nM,–
"O=C(NCCc1ccc(Cl)cc1)c1ccccc1NCc1ccc(O)cc1 [Example 4.0, N-[2-(4-chlorophenyl)ethyl]-N-2-(4-hydroxybenzyl)anthranilamide]",500 nM,200 nM
O=C(NC1Cc2ccccc2C1)c1ccccc1NCc1ccncc1 [Example 2.2],100 nM,500 nM
CC(NC(=O)c1ccccc1NCc1ccncc1)c1cccc2ccccc12 (stereo not drawn) [Example 2.12],700 nM,3000 nM
CC(Cc1ccc(Cl)cc1)NC(=O)c1ccccc1NCc1ccncc1 (stereo not drawn) [Example 2.17],400 nM,500 nM
O=C(Nc1ccc2nsnc2c1)c1ccccc1NCc1ccncc1 [Example 2.23],20 nM,670 nM
O=C(Nc1ncc(Cl)cn1)c1ccccc1NCc1ccncc1 [Example 2.32],20 nM,20 nM
O=C(Nc1nnc(C(F)(F)F)s1)c1ccccc1NCc1ccncc1 [Example 2.41],1000 nM,300 nM
"O=C(Nc1ccc2[nH]ncc2c1)c1ccccc1NCc1ccncc1 [Example 8.0, N-(indazol-5-yl) N2-(4-pyridylmethyl)-anthranilic acid amide]",40 nM,40 nM
CC(C)(NC(=O)c1ccccc1NCc1ccncc1)c1ccccc1 [Example 2.19],> 10000 nM,> 10000 nM
O=C(Nc1ccc2ccccc2n1)c1ccccc1NCc1ccncc1 [Example 2.53],20 nM,20 nM
O=C(N[C@@H]1CCCc2ccccc21)c1ccccc1NCc1ccncc1 [Example 2.24],500 nM,> 1000 nM
COc1ccc(CCNC(=O)c2ccccc2NCc2ccncc2)cc1OC [Example 2.21],2000 nM,300 nM
O=C(Nc1ccc2[nH]nnc2c1)c1ccccc1NCc1ccncc1 [Example 8.15],200 nM,200 nM
O=C(Nc1cccc2ncccc12)c1ccccc1NCc1ccncc1 [Example 2.26],200 nM,200 nM
O=C(NCc1cccnc1)c1ccccc1NCc1ccncc1 [Example 2.38],7000 nM,200 nM
O=C(Nc1cccc2cccnc12)c1ccccc1NCc1ccncc1 [Example 2.34],2000 nM,100 nM
O=C(Nc1cc(-c2ccccc2)[nH]n1)c1ccccc1NCc1ccncc1 [Example 2.43],20 nM,50 nM

SMILES,IC50 [1],IC50 [2]
COc1cc2c(cc1OC)CC(NC(=O)c1ccccc1NCc1ccncc1)CC2 (stereo not drawn) [Example 2.9],5000 nM,–
O=C(Nc1nccc2ccccc12)c1ccccc1NCc1ccncc1 [Example 2.31],100 nM,270 nM
O=C(NCc1cccs1)c1ccccc1NCc1ccncc1 [Example 2.6],200 nM,2000 nM
O=C(NCCCc1ccc(Cl)cc1)c1ccccc1NCc1ccncc1 [Example 2.14],500 nM,300 nM
O=C(Nc1ccc2ncsc2c1)c1ccccc1NCc1ccncc1 [Example 8.8],50 nM,20 nM
O=C(NCc1nccc2ccccc12)c1ccccc1NCc1ccncc1 [Example 2.47],20 nM,–
CN(NC(=O)c1ccccc1NCc1ccncc1)c1ccccc1 [Example 2.5],1000 nM,–
O=C(NC1CCCc2ccccc21)c1ccccc1NCc1ccncc1 (stereo not drawn) [Example 2.13],700 nM,3000 nM
CC(CNC(=O)c1ccccc1NCc1ccncc1)c1ccc(Cl)cc1 (stereo not drawn) [Example 2.16],100 nM,200 nM
O=C(Nc1cc2ccccc2cn1)c1ccccc1NCc1ccncc1 [Example 2.54],20 nM,5 nM
O=C(Nc1cc2ccccc2cn1)c1cc(F)ccc1NCc1ccncc1 [Example 2.63],–,0.3 nM
O=C(Nc1ccc2cn[nH]c2c1)c1ccccc1NCc1ccncc1 [Example 8.10],20 nM,20 nM
"COc1ccc(CNc2ccccc2C(=O)NCc2ccc(Cl)cc2)cc1 [Example 3.0, N-(4-chlorobenzyl)-N-2-(4-methoxybenzyl)anthranilamide]",–,3000 nM
O=C(Nc1nc2ccc(Cl)cc2s1)c1ccccc1NCc1ccncc1 [Example 8.13],500 nM,500 nM
O=C(Nc1ccccn1)c1ccccc1NCc1ccncc1 [Example 2.37],200 nM,–
O=C(Nc1cccnc1)c1ccccc1NCc1ccncc1 [Example 2.40],500 nM,–
O=C(Nc1cc2ccccc2c(Nc2cc3ccccc3c(Br)n2)n1)c1ccccc1NCc1ccncc1 [Example 2.33],1000 nM,2000 nM
"O=C(NCCCc1ccccc1)c1ccccc1NCc1ccncc1 [Example 2.0, N-(3-phenylprop-1-yl)-N2-(4-pyridylmethyl)-anthranilic acid amide]",50 nM,50 nM
O=C(Nc1ccc2nc[nH]c2c1)c1ccccc1NCc1ccncc1 [Example 8.14],500 nM,200 nM
O=C(Nc1nc2ccccc2[nH]1)c1ccccc1NCc1ccncc1 [Example 8.2],200 nM,200 nM
CC(NC(=O)c1ccccc1NCc1ccncc1)c1ccc(Cl)cc1 (stereo not drawn) [Example 2.15],1000 nM,–

SMILES,IC50 [1],IC50 [2]
COc1ccc(CCNC(=O)c2ccccc2NCc2ccncc2)cc1 [Example 2.35],98 nM,20 nM
O=C(Nc1ccc2c(c1)NCCC2)c1ccccc1NCc1ccncc1 [Example 2.49],80 nM,50 nM
Cn1c(NC(=O)c2ccccc2NCc2ccncc2)nc2ccccc21 [Example 8.12],200 nM,100 nM
O=C(Nc1nc2ccc(F)cc2s1)c1ccccc1NCc1ccncc1 [Example 8.16],200 nM,300 nM
O=C(Nc1ccc2[nH]ccc2c1)c1ccccc1NCc1ccncc1 [Example 2.56],40 nM,20 nM
O=C(Nc1ccc(Cl)cn1)c1ccccc1NCc1ccncc1 [Example 2.39],50 nM,30 nM
O=C(NCc1cccc2ccccc12)c1ccccc1NCc1ccncc1 [Example 2.11],20 nM,200 nM
O=C(NCc1ccc(C(F)(F)F)cc1)c1ccccc1NCc1ccncc1 [Example 2.42],500 nM,100 nM
O=C(NCCc1c[nH]c2cc(F)ccc12)c1ccccc1NCc1ccncc1 [Example 2.8],500 nM,100 nM
O=C(NCCc1ccc(Cl)cc1)c1ccccc1NCc1ccncc1 [Example 2.3],20 nM,20 nM
CC(CNC(=O)c1ccccc1NCc1ccncc1)c1ccccc1 (stereo not drawn) [Example 2.18],300 nM,500 nM
O=C(NC1CCC(c2ccccc2)CC1)c1ccccc1NCc1ccncc1 (stereo not drawn) [Example 2.44],300 nM,200 nM
O=C(NCc1ccncc1)c1ccccc1NCc1ccncc1 [Example 2.10],3000 nM,–
O=C(Nc1ccncc1)c1ccccc1NCc1ccncc1 [Example 8.11],200 nM,–
O=C(Nc1nc2ccc(OC(F)(F)F)cc2s1)c1ccccc1NCc1ccncc1 [Example 8.9],500 nM,500 nM
O=C(Nc1ccc2ncccc2c1)c1ccccc1NCc1ccncc1 [Example 2.52],50 nM,–
O=C(Nc1cccc2cnccc12)c1ccccc1NCc1ccncc1 [Example 2.55],300 nM,200 nM
O=C(Nc1nc2c(Cl)cccc2s1)c1ccccc1NCc1ccncc1 [Example 8.17],–,50 nM
O=C(NCc1ccc(Cl)cc1)c1ccccc1NCc1ccncc1 [Example 2.1],10 nM,300 nM
